The experiment concerns Human MSCs and Pancl cells. The experiment can be described thus: Co-culture of human MSCs and Pancl cells in induction media with added factors to potentiate differentiation. To be noted: MSC/Pancl co-culture, induction media 1% ITS, 2% BSA in DMEM; 100 μM, 10 days. It is filed as cell-based. The protocol: Design: Human MSCs from Clontech (Palo Alto, CA), passage 4-6, and Pancl cells from ATCC, passage 2-6, were used in the experiment. 5 ×10ˆ5 cells for both cells were seeded in 10 cm tissue culture treated dishes in a 1:1 combination media of DMEM containing 10% FBS and a MSC growth media purchased from CAMBREX (Walkersville, MD). After 2-3 days of culture, the media was replaced by the induction media containing1% ITS, 2% BSA in DMEM. The proteasome inhibitor, Lactocystin, was added into the media at the final concentration of 100 μM to potentiate the differentiation for 10 days.
Design: Human MSCs from Clontech, passage 4-6, and Pancl cells from ATCC, passage 2-6, were used in the experiment. 5 ×10ˆ5 cells for both cells were seeded in 10 cm tissue culture treated dishes in a 1:1 media of DMEM containing 10% FBS, and a MSC growth media purchased from CAMBREX. After 2-3 days of culture, the media was replaced by the induction media containing 1% ITS, 2% BSA in DMEM for 10 days. A growth factor cocktail containing bFGF, EGF, Exendin-4 and Nicotinamide, was added into the media to potentiate the differentiation.
Design: Human MSCs from Clontech, passage 4-6, and Pancl cells from ATCC, passage 2-6, were used in the experiment. 5 ×10ˆ5 cells for both cells were seeded in 10 cm tissue culture treated dishes in a 1:1 media of DMEM with 10% FBS, and MSC growth media purchased from CAMBREX. […]

As for `CC(=O)N[C@@H](CSC(=O)[C@]1([C@@H](O)C(C)C)NC(=O)[C@H](C)[C@@H]1O)C(=O)O` [Lactocystin], the expression of insulin result is “No formation of clusters or expression of insulin” and the formation of clusters result is recorded as “No formation of clusters”.
